Data as given in a melting point compilation (Tetko et al.; mined from patent text by program, amines drawn as free bases though some values may be those of a salt).

SMILES	melting point
O=C(CN1CC(F)(F)Cn2c1nc(-c1ccncn1)cc2=O)c1ccccc1	233 to 234 °C
CCOC(=O)C1=CC2(CCC1S(=O)(=O)Nc1ccc(F)cc1Cl)OCCCCO2 (stereo not drawn)	142 to 144 °C
C=CCNC(=O)N1C[C@@H](Oc2cccc(C(F)(F)F)c2)[C@@H]1C (relative stereo)	55 to 57 °C
COc1ccc(CCNc2nc(O)c(NC(=O)c3ccco3)c(O)n2)cc1	> 250 °C
CCc1c(C)nc(OC)c(NC(=O)C(C)(C)C)c1Cc1cc(C)cc(C)c1	138 to 139 °C
C[C@@H](n1ccnn1)[C@](O)(Cn1ccnc1)c1ccc(F)cc1F	150 to 151 °C
Cn1nnc2c1C(=O)C(Cl)=C(Cl)C2=O	254 to 255 °C
O=C(Nc1nc(C(F)(F)F)c(I)s1)c1cccs1	184 to 185 °C
Cc1ccccc1-c1c(C(=O)O)c(=O)n(C)c2ccc(Cl)cc12	202 to 203 °C
CCCCc1nc(C(F)(F)CCC)nn1Cc1ccc(-c2ccccc2-c2nnn[nH]2)cc1	165 to 168 °C
Cc1cccc2nc(-c3c(F)cccc3F)[nH]c12	148 °C
CCOC(=O)/C(C)=C/CC[C@@H](C)[C@H]1CC[C@@]2(C)C3=CCC4C(C)(C)C(=O)CC[C@]4(C)C3=CC[C@]12C (stereo partly drawn)	53 to 55 °C
CCCCNc1ccc(S(=O)(=O)N2CC(N(Cc3ccccc3)C(=O)OC(C)(C)C)C2)cc1	115 to 116 °C
O=C(O)c1cccc(NC(=O)C(CS)Cc2ccc(F)cc2F)c1 (stereo not drawn)	168 to 170 °C
COc1ccc(CN(C)C2CCN(c3ccc([N+](=O)[O-])cc3)CC2)cc1	144 to 145 °C
COC1CC2C3CCC4=CC(=O)CCC4(C)C3(F)C(O)CC2(C)C1(OC(C)=O)C(=O)CCl (stereo not drawn)	243 to 245 °C
CC(=O)C1=CCC2C3CCC4=CC(=O)CCC4(C)C3CCC12C (stereo not drawn)	185 to 190 °C
Cc1nc2ccccc2c(NCC(C)O)c1Br (stereo not drawn)	147 to 149 °C
O=C1OC(c2ccc(F)cc2)C(Cn2cncn2)(c2ccc(Cl)cc2Cl)O1 (stereo not drawn)	191 to 192 °C
O=c1nc(-c2ccc[nH]2)sc2ccccc12	202 to 203 °C
CNc1nc(N)c(SC)c(Cl)n1	205 °C
CCCc1nc(C(C)(C)O)c(C(=O)OC2OC(=O)c3ccccc32)n1Cc1ccc(-c2ccccc2C(=O)O)cc1 (stereo not drawn)	142 to 144 °C
Cc1nc(N)sc1C(=O)c1cccnc1	287 to 288 °C
COc1cn(C)cc(-c2cccc(C(F)(F)F)c2)c1=O	173 to 175 °C
Cc1cn(-c2ccc3nc(NC(=O)c4ccc(C(C)(C)C)cc4)cn3n2)c(C)n1	254 to 255 °C

SMILES	melting point
COc1nc(N)nc(OC)n1	218 to 221 °C
O=C(OCCc1ccccc1)ON1C(=O)CCC1=O	69 to 72 °C
Fc1ccc2[nH]cc(C3=CCN(CC4COc5ccc6ncncc6c5O4)CC3)c2c1 (stereo not drawn)	233 to 235 °C
O=C(CCl)Nc1ccc2c(c1NC(=O)c1ccc(F)cc1)C(=O)c1ccccc1C2=O	184 to 185 °C
COc1nc(Cn2cncn2)cnc1NS(=O)(=O)c1cccc(Cl)c1Cl	95 to 105 °C
COC(=O)c1c(C)nc(C)c(C(=O)OCC2CCCO2)c1-c1ccccc1[N+](=O)[O-] (stereo not drawn)	69 to 70 °C
Cc1c(CC(=O)O)oc2ccc(-c3ccccc3)cc12	173 to 174 °C
COc1c(Cl)ccc(-c2nc(C(=O)OCc3ccccc3)c(Cl)c(N)c2F)c1F	132 to 133 °C
CNC(=S)N1CCc2[nH]cnc2C1c1ccccc1 (stereo not drawn)	228 °C
CN1C(=O)[C@H](NC(=O)CNc2ccc(C(F)(F)F)cc2)N=C(c2ccccc2)c2ccccc21	218 to 219 °C
CCOc1c(CO)cnc2c1c(C)nn2CC	85 to 86 °C
OCc1nccc(N2CCCC2)n1	114 to 116 °C
Cc1cc(C(=O)NCO)ncc1C(c1c(F)ccc(F)c1F)S(=O)(=O)c1ccc(OC(F)(F)F)cc1 (stereo not drawn)	140 to 141 °C
CCCCCC(COc1ccc(C(=O)O)cc1)c1ccc2c(c1)C(C)(C)CC(C)(C)O2 (racemic)	94 to 96 °C
O=[N+]([O-])c1ccc2c(c1)Sc1cc(OC/C=C/I)ccc1N2	> 250 °C
CCCc1nc2cccc(C(=S)OC)c2n1Cc1ccc(-c2ccccc2)c(-c2nc(=O)o[nH]2)c1	220 to 221 °C
COc1cc(N)c2nc(Cl)cc(C)c2c1Oc1cccc(C(F)(F)F)c1	133 to 135 °C
CCC1(C)CC(=NO)C(C)C(C)(CC)N1OC(C)c1ccccc1 (stereo not drawn)	130 to 145 °C
C=C=CS(=O)(=O)c1ncc(Cl)cn1	130 °C
Cc1cccc(OCCOc2cccc(C)c2)c1	98 °C
NS(=O)(=O)c1cc(C(=O)NN(c2ccccc2)C2CCCCC2)ccc1Cl	216 to 217 °C
COc1cc2ncnc(NC3=CC(=O)C(c4ccccc4)=CC3=O)c2cc1OC	200 to 205 °C
CSc1ncc(Oc2ccc(Cl)cc2)c(=O)[nH]1	232 to 233 °C
CCCCCCCCOc1ccc(C#N)c(O)c1	69 to 71 °C
COc1ccc(CCN2CCC(C(=O)c3nc4ccccc4s3)CC2)cc1	119 to 120 °C

SMILES	melting point
COc1ccc(C(=O)CN2CCNC2=O)cc1OC	167 °C
COc1ccc(NC(=S)Nc2ccc(NNC=O)c(OC)c2)cc1	160 to 162 °C
Cc1nc(-c2cnc3[nH]cc(C(=O)N[C@@H](C(=O)N4CC(C#N)C4)C4CC4)c3n2)cn1-c1ccccc1	175 to 179 °C
CC(=O)N1CC(C)(C)c2cc3nc(-c4ccccc4)[nH]c3cc21	225 to 227 °C
COc1ccc2c(Cc3c(Cl)cncc3Cl)nncc2c1C=Cc1ccccc1	180 to 182 °C
O=[N+]([O-])c1cc(C(F)(F)F)ccc1NCCO	74.9 °C
CCCC(CCCCCN1C(=O)c2ccccc2C1=O)(C(=O)OCC)C(=O)OCC	51 to 52 °C
Nc1ccc(Oc2ccc(P(=O)(c3ccccc3)c3ccccc3)c(Oc3ccc(N)cc3)c2)cc1	272 to 275 °C
CC(=O)NC[C@H]1CN(c2ccc(N3CCN(C(=O)OC(C)(C)C)CC3)c(F)c2)C(=O)O1	153 to 159 °C
Cc1cc(N2CCN(Cc3ccc(F)cc3)C2=O)sc1C(=O)NCc1nc2ccccc2[nH]1	265 to 267 °C
CC(C)C(=O)NC1CCc2[nH]c3cc4c(cc3c2C1)OCO4 (stereo not drawn)	198 to 200 °C
COc1cccc(SC2CC(=O)N2)c1 (stereo not drawn)	55 to 56 °C
O=C(NS(=O)(=O)c1cccc([N+](=O)[O-])c1)c1ccccc1Cl	135 °C
COc1ccc2cc(C(=O)C(C)O[Si](C)(C)C)ccc2c1 (stereo not drawn)	72 to 75 °C
COc1ccc(C(C)C)cc1-c1cc(-c2nnnn2C2CCNC2)c(OCc2ccccc2)cc1OCc1ccccc1 (stereo not drawn)	85 to 87 °C
Cn1cnc(=O)c(-c2cccc(Br)c2)c1	120 to 121 °C
COC(=O)CCCc1cc2nc(Cl)ccc2n1S(=O)(=O)c1ccc(-c2nccs2)cc1	101 °C
CCOC(=O)c1ncn2c(C(F)F)cc(-c3ccc(C(F)(F)F)cc3)nc12	219 °C
CC(=O)c1c(SSc2c(C(C)=O)c3ccccc3n2C)n(C)c2ccccc12	178 to 180 °C
COC(=O)C(=C1SCCCN1C(=O)C(Cl)Cl)[N+](=O)[O-]	122 °C
CCCOc1ccc(S(C)(=O)=O)cc1-c1nc2c(CC)nn(Cc3ccccn3)c2c(=O)[nH]1	209 to 211 °C
CCN(CC)c1ccc(S(=O)(=O)N2CCCCC2=O)cc1	118 to 120 °C
Cc1cc(C)c2c(n1)Nc1cc(C)c(C)cc1NC2=O	264 to 268 °C
CC(C)C(=O)N[C@@H](CSC(=O)C(C)C)C(=O)NCCSC(=O)C(C)(C)C	105 to 107 °C
CCCCc1nc(Cl)c(/C=C(\Cc2ccccc2)C(=O)O)n1Cc1ccc(-c2c(O)c(=O)c2=O)cc1	155 to 160 °C

SMILES	melting point
CSCC(=O)C(Cc1cccc2ccccc12)NC(=O)C(CC(C)C)NC(=O)OCc1ccccc1 (stereo not drawn)	77 to 80 °C
CCN(CC)C[C@@H]1CCCN1CC(=O)N1c2ccccc2C(=O)Nc2cccnc21	192 to 193 °C
CCCCCCCCCC(=O)c1ccc(O)c(C(=O)Nc2ccc([N+](=O)[O-])cc2)c1	142 to 143 °C
Cc1c(F)c(Oc2cccc(C(=N)N)c2)nc(Oc2cccc(C(=N)N)c2)c1F	> 210 °C
CCOC(CCCN1CCC(NC(=O)c2ccccc2)CC1)OCC	95 °C
COc1ccc(C(OCC2OC(n3cc(C)c(=O)[nH]c3=O)CC2O)(c2ccccc2)c2ccc(OC)cc2)cc1 (stereo not drawn)	124 to 126 °C
Cc1ccc2[nH]c(CO)cc2c1C	159 °C
NNC(=O)c1cc2ccncc2c2sc3ccccc3c12	285 to 289 °C
O=C1C(=O)c2ccc(-c3ccccc3)cc2C2=C1SCC1(CCNCC1)O2	83 to 87 °C
CC1CC2C3CCC4=CC(=O)C=CC4(C)C3=CCC2(C)C1(O)C#N (stereo not drawn)	241 to 248 °C
O=C1CC(ON(Cc2ccccc2)Cc2ccccc2)C(=O)N1C1CCCCC1 (stereo not drawn)	75 to 77 °C
NNc1nncc(-c2ccc(F)cc2)n1	228 to 231 °C
COc1c(C2CC2c2ccc(NS(C)(=O)=O)cc2)cc(N2CCC(=O)NC2=O)cc1C(C)(C)C (stereo not drawn)	265 to 266 °C
COc1ccc(-n2nc(C(F)(F)F)cc2CO)cc1	79 °C
CCOC(=O)c1c(CCc2ccccc2)nc2c(cnn2CC)c1O	153 to 155 °C
CC(C)(C)OC(=O)[C@H](Cc1ccccc1)NC(=O)CNC1Cc2ccccc2C1	117 to 120 °C
CC(C)(C)OC(=O)N1CCC2(CC1)SCc1ccccc12	131 to 132 °C
O=C(O)C1CN(c2ccc(-c3noc(CCl)n3)cc2)C(=O)O1 (stereo not drawn)	178 to 181 °C
CON=C(C(=O)OC)c1cccc(OCc2ccccc2)c1	62 to 63 °C
CCOC(=O)c1cn(C)c2cnc3cc(F)c(N4CCN(C(=O)CC(F)(F)F)C(c5ccc(OCc6ccccc6)c(OC)c5)C4)cc3c2c1=O (stereo not drawn)	154 °C
N#Cc1cc(N)ccc1N1CCC(OC(=O)c2ccccc2)CC1	154 to 155 °C
N#Cc1ccccc1N1CCc2ccccc21	94 to 96.5 °C
CCOC(=O)C(=CN[C@@H](C)CO)C(=O)c1c(F)c(F)c(Br)c(F)c1F	127 to 134 °C
